Results: PubChem BioAssay (NCI)
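These data come from cells grown in 96-well plates and exposed to compound for 48 hours at five concentrations. Here, GI50 denotes the concentration required for 50% inhibition of growth. The concentration for full growth arrest is given as TGI.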

Key:
Test in all cases: NCI tumour cell line growth inhibition, 48 h
DLD-1 colon = system: DLD-1 colon
DMS 114 small cell lung = system: DMS 114 small cell lung
DMS 273 small cell lung = system: DMS 273 small cell lung
HOP-18 NSCLC = system: HOP-18 NSCLC
KM20L2 colon = system: KM20L2 colon
M19-MEL melanoma = system: M19-MEL melanoma
P388 leukemia = system: P388 leukemia
SN12K1 renal = system: SN12K1 renal
XF 498 CNS = system: XF 498 CNS
ACHN renal = system: ACHN renal
HS 578T breast = system: HS 578T breast
MDA-MB-231 breast = system: MDA-MB-231 breast
RPMI-8226 leukemia = system: RPMI-8226 leukemia
BT-549 breast = system: BT-549 breast
M14 melanoma = system: M14 melanoma
MDA-N = system: MDA-N

Compound	TGI (DLD-1 colon)	TGI (DMS 114 small cell lung)	TGI (DMS 273 small cell lung)	TGI (HOP-18 NSCLC)	TGI (KM20L2 colon)	TGI (M19-MEL melanoma)	TGI (P388 leukemia)	TGI (SN12K1 renal)	TGI (XF 498 CNS)	GI50 (ACHN renal)	TGI (ACHN renal)	GI50 (HS 578T breast)	TGI (HS 578T breast)	GI50 (MDA-MB-231 breast)	TGI (MDA-MB-231 breast)	GI50 (RPMI-8226 leukemia)	TGI (RPMI-8226 leukemia)	TGI (BT-549 breast)	TGI (M14 melanoma)	TGI (MDA-N)
COc1cc(N=Nc2cccc(S(=O)(=O)O)c2)c(C)cc1N=Nc1ccc(/C=C/c2ccc(N=[N+]([O-])c3ccc(/C=C/c4ccc(N=Nc5cc(C)c(N=Nc6cccc(S(=O)(=O)O)c6)cc5OC)cc4)c(S(=O)(=O)O)c3)cc2S(=O)(=O)O)cc1	> 100 µM	> 100 µM	> 100 µM	> 100 µM	> 100 µM	> 100 µM	> 100 µM	> 100 µM	> 100 µM											
COC(=O)C(C)N1C(=O)c2ccccc2I1OC(C)=O (stereo unspecified)										30.2 µM	> 100 µM	> 100 µM	> 100 µM	25.4 µM	> 100 µM	15.3 µM	37.6 µM			
CC(C)(C)OC(=O)NC(Cc1ccccc1)C(=O)N[C@H]1c2ccsc2/C(=N/O)[C@H]1O (stereo partly specified)															> 100 µM			> 100 µM	> 100 µM	> 100 µM
